Laboratory results from patent US9969762B2.
In brackets after ≈: the same amount, converted by molar mass. Read-outs that look alike come from different tables or passages of the source.

How the values were obtained:
[1] = test system: Pectobacterium atrosepticum; experiment: Antibacterial activity (MIC and MBC) in TY medium; type: cell-based; settings: for MBC: plated on TY agar
Dickeya dianthicola = experiment: Antibacterial activity (MIC and MBC) in TY medium; type: cell-based; settings: for MBC: plated on TY agar
[2] = test system: Agrobacterium tumefaciens; experiment: Antibacterial activity (MIC and MBC) in TY medium; type: cell-based; settings: for MBC: plated on TY agar
[3] = test system: Agrobacterium tumefaciens, Pectobacterium atrosepticum and Dickeya dianthicola bacteria; experiment: Antibacterial activity, summary statements over the bacteria tested; type: cell-based; settings: for inhibition of the growth of the bacteria (in words): after 36 h of incubation at 30° C., compared with 4-NPO
Fusarium sambucinum = settings: for Inhibition of the growth of the Fusarium sambucinum fungi: compound in methanol, more than 10 days at 20° C.; for Inhibition of the growth of the fungi: compound in DMSO, 10 days at 20° C.
Procedure: (§1) The antifungal activity of the N-alkyl-glycosyl(di)amine derivatives of formula (I) and of the N-alkyl-glycamine derivatives of formula (III) synthesized according to the process of the invention was evaluated on two fungi: Fusarium roseum and Fusarium sambucinum.
(§2) For this, 500 μl of solution comprising the test derivative, dissolved in DMSO or methanol, are mixed with 19.5 ml of malt agar medium (Sigma aldrich) allowing the growth of these two Fusarium isolates. The test derivative is prepared in 2 ml of methanol, then mixed with 18 ml of malt agar medium (Sigma aldrich). A spot of 10 μl of culture of each Fusarium is then deposited at the center of each Petri dish. After 10 days of incubation at 20° C., the growth diameters are measured.
(§3) The range of concentrations of N-alkyl-glycosyl(di)amine derivatives of formula (I) tested ranges from 0.1 to 25 μmol/ml.
(§4) The Fusarium growth on media containing the various molecules is compared with that obtained only with DMSO or methanol.
(§5) The same antifungal evaluation protocol as the one previously described with the compound Ij was applied for other N-alkyl-glycosyl(di)amine derivatives of formula (I) and N-alkyl-glycamine derivatives of formula (III) at concentrations ranging from 1 to 20 μmol/ml.
(§6) 2 ml of solution comprising the test compound dissolved in methanol are mixed with 18 ml of agar malt medium (Sigma aldrich) allowing the growth of these two Fusarium isolates. A spot of 10 μl of culture of each Fusarium is then deposited at the center of each Petri dish. After more than 10 days of incubation at 20° C., the growth diameters are measured.

Phytophthora infestans = experiment: microbe, parasite or virus in culture; type: cell-based; settings: after 6 days; 20 mg in 200 μl distilled water, spots of 10 μl
Fusarium roseum = settings: for Inhibition of the growth of the Fusarium roseum fungi: compound in methanol, more than 10 days at 20° C.; for Inhibition of the growth of the fungi: compound in DMSO, 10 days at 20° C.
Procedure: as §1, §2, §3, §4, §5, §6

[4] = 36 h of culture at 30° C., TY medium

SMILES	bactericidal activity (in words) [3]	inhibition of the growth of the bacteria (in words) [3]	MIC [1, 4] [µg/mL]	MIC [2, 4] [µg/mL]	Inhibition of the growth of the Fusarium sambucinum fungi (Fusarium sambucinum; 1 μmol/ml) [%]	Inhibition of the growth of the Fusarium sambucinum fungi (Fusarium sambucinum; 2.5 μmol/ml) [%]	Inhibition of the growth of the Fusarium sambucinum fungi (Fusarium sambucinum; 5 μmol/ml) [%]	Average diameters of inhibition zone (Phytophthora infestans) [mm]	Inhibition of the growth of the Fusarium roseum fungi (Fusarium roseum; 1 μmol/ml) [%]	Inhibition of the growth of the Fusarium roseum fungi (Fusarium roseum; 2.5 μmol/ml) [%]	Inhibition of the growth of the Fusarium roseum fungi (Fusarium roseum; 5 μmol/ml) [%]	MBC ([1]; 36 h of culture at 30° C.) [µg/mL]	MBC ([2]; 36 h of culture at 30° C.) [µg/mL]	other results
O=[N+]([O-])c1cc[n+]([O-])cc1 [4-NPO, 4-Nitropyridine-N-oxide, reference compound]														MIC ([1]; Pectobacterium atrosepticum, 36 h, 36 h of culture at 30° C., TY medium, read-out: MIC): 125 µg/mL (≈ 892 µM); MIC ([1]; Pectobacterium atrosepticum, reference bacteriostatic molecule, read-out: MIC): 125 µg/mL (≈ 892 µM); MIC (Dickeya dianthicola; Dickeya dianthicola, 36 h of culture at 30° C., TY medium, read-out: MIC): 16 µg/mL (≈ 114 µM); MBC (Dickeya dianthicola; Dickeya dianthicola, 36 h of culture at 30° C., read-out: MBC): 16 µg/mL (≈ 114 µM); MIC (Dickeya dianthicola; Dickeya dianthicola, reference bacteriostatic molecule, read-out: MIC): 16 µg/mL (≈ 114 µM); MIC ([2]; Agrobacterium tumefaciens, 36 h, 36 h of culture at 30° C., TY medium, read-out: MIC): 125 µg/mL (≈ 892 µM); MIC ([2]; Agrobacterium tumefaciens, reference bacteriostatic molecule, read-out: MIC): 125 µg/mL (≈ 892 µM)
CC1OC(NCCCCCNC2OC(C)[C@H](O)C(O)C2O)C(O)C(O)[C@H]1O (some centres unmarked) [Ig]	showed a bactericidal activity	inhibition of the growth of the bacteria was observed	125 (≈ 317 µM)	125 (≈ 317 µM)										MBC ([1]; Pectobacterium atrosepticum, 36 h, 36 h of culture at 30° C., read-out: MBC): 250 µg/mL (≈ 634 µM); MBC ([2]; Agrobacterium tumefaciens, 36 h, 36 h of culture at 30° C., read-out: MBC): 250 µg/mL (≈ 634 µM)
CCCCCCCCCCCCNCC(O)C(O)C(O)C(C)O (centres unmarked) [compound IIIa]	showed a bactericidal activity	inhibition of the growth of the bacteria was observed	32 (≈ 95.9 µM)	16 (≈ 48 µM)	100	100	100	24	100	100	100	32 (≈ 95.9 µM)	62.5 (≈ 187 µM)	MIC (Dickeya dianthicola; [4]): 62.5 µg/mL (≈ 187 µM); MBC (Dickeya dianthicola; 36 h of culture at 30° C.): 62.5 µg/mL (≈ 187 µM)
CCCCCCCCCCCCNCC(O)C(O)C(O)C(O)CO (centres unmarked) [compound IIIb]	showed a bactericidal activity	inhibition of the growth of the bacteria was observed	32 (≈ 91.6 µM)	16 (≈ 45.8 µM)	96	96	100	20	100	100	100	32 (≈ 91.6 µM)	32 (≈ 91.6 µM)	MIC (Dickeya dianthicola; [4]): 62.5 µg/mL (≈ 179 µM); MBC (Dickeya dianthicola; 36 h of culture at 30° C.): 62.5 µg/mL (≈ 179 µM)
CCCCCCCCCCCCNCC(O)C(O)C(O)C(O)CO (centres unmarked) [compound IIIc]	showed a bactericidal activity	inhibition of the growth of the bacteria was observed	62.5 (≈ 179 µM)	>500	98	100	100	18	100	100	100	62.5 (≈ 179 µM)	>500	MIC (Dickeya dianthicola; [4]): >500 µg/mL; MBC (Dickeya dianthicola; 36 h of culture at 30° C.): >500 µg/mL
CC(O)C(O)C(O)C(O)CNCCCCCCCCCCCCN (centres unmarked) [compound IIId]	showed a bactericidal activity	inhibition of the growth of the bacteria was observed	62.5 (≈ 179 µM)	52.5 (≈ 151 µM)				0				62.5 (≈ 179 µM)	250 (≈ 717 µM)	MIC (Dickeya dianthicola; [4]): 16 µg/mL (≈ 45.9 µM); MBC (Dickeya dianthicola; 36 h of culture at 30° C.): 125 µg/mL (≈ 359 µM)
CCCCNC1OC(C)[C@H](O)C(O)C1O (some centres unmarked) [compound Ib]					0	0	4		0	0	0			Inhibition of the growth of the Fusarium sambucinum fungi (Fusarium sambucinum; 10 μmol/ml): 76%; Inhibition of the growth of the Fusarium sambucinum fungi (Fusarium sambucinum; 20 μmol/ml): 90%; Inhibition of the growth of the Fusarium roseum fungi (Fusarium roseum; 10 μmol/ml): 70%; Inhibition of the growth of the Fusarium roseum fungi (Fusarium roseum; 20 μmol/ml): 88%
CCCCCNC1OC(C)[C@H](O)C(O)C1O (some centres unmarked) [compound Ic]		inhibition of the growth of the bacteria was observed	62.5 (≈ 268 µM)	125 (≈ 536 µM)	10	33	89		0	18	99	>500		Inhibition of the growth of the Fusarium sambucinum fungi (Fusarium sambucinum; 10 μmol/ml): 90%; Inhibition of the growth of the Fusarium sambucinum fungi (Fusarium sambucinum; 20 μmol/ml): 100%; Inhibition of the growth of the Fusarium roseum fungi (Fusarium roseum; 10 μmol/ml): 99%; Inhibition of the growth of the Fusarium roseum fungi (Fusarium roseum; 20 μmol/ml): 100%
CCCCCNC1OC(C)[C@H](O)C(O)C1O (some centres unmarked) [compound Id]	showed a bactericidal activity	inhibition of the growth of the bacteria was observed	62.5 (≈ 268 µM)	62.5 (≈ 268 µM)								250 (≈ 1070 µM)	250 (≈ 1070 µM)	
CC1OC(NCCCCCNC2OC(C)[C@H](O)C(O)C2O)C(O)C(O)[C@H]1O (some centres unmarked) [compound If]		inhibition of the growth of the bacteria was observed	250 (≈ 634 µM)	>500										
CC1OC(NCCCCCNC2OC(C)[C@H](O)C(O)C2O)C(O)C(O)[C@H]1O (some centres unmarked) [compound Ih]	showed a bactericidal activity	inhibition of the growth of the bacteria was observed	62.5 (≈ 158 µM)	62.5 (≈ 158 µM)	12	27	100		0	28	90	125 (≈ 317 µM)	500 (≈ 1270 µM)	Inhibition of the growth of the Fusarium sambucinum fungi (Fusarium sambucinum; 10 μmol/ml): 100%; Inhibition of the growth of the Fusarium sambucinum fungi (Fusarium sambucinum; 20 μmol/ml): 100%; Inhibition of the growth of the Fusarium roseum fungi (Fusarium roseum; 10 μmol/ml): 93%; Inhibition of the growth of the Fusarium roseum fungi (Fusarium roseum; 20 μmol/ml): 93%
CC1OC(NCCCCCCCCCCCCN)C(O)C(O)C1O (centres unmarked) [compound Ii]	showed a bactericidal activity		8 (≈ 23.1 µM)	16 (≈ 46.2 µM)	28	60	100		0	34	93	16 (≈ 46.2 µM)	32 (≈ 92.3 µM)	Inhibition of the growth of the Fusarium sambucinum fungi (Fusarium sambucinum; 10 μmol/ml): 100%; Inhibition of the growth of the Fusarium sambucinum fungi (Fusarium sambucinum; 20 μmol/ml): 100%; Inhibition of the growth of the Fusarium roseum fungi (Fusarium roseum; 10 μmol/ml): 93%; Inhibition of the growth of the Fusarium roseum fungi (Fusarium roseum; 20 μmol/ml): 100%
CCCCCCCCCCCCNC1OC(CO)C(O)C(O)C1O (centres unmarked) [compound Ij]	showed a bactericidal activity	inhibition of the growth of the bacteria was observed	16 (≈ 46 µM)	8 (≈ 23 µM)				24					16 (≈ 46 µM)	Inhibition of the growth of the fungi (Fusarium sambucinum; 1 μmol/ml): 50%; Inhibition of the growth of the fungi (Fusarium sambucinum; 2.5 μmol/ml): 50%; Inhibition of the growth of the fungi (Fusarium sambucinum; 5 μmol/ml): 100%; Inhibition of the growth of the fungi (Fusarium sambucinum; 10 μmol/ml): 100%; Inhibition of the growth of the fungi (Fusarium sambucinum; 20 μmol/ml): 100%; Inhibition of the growth of the fungi (Fusarium sambucinum; 25 μmol/ml): 100%; Inhibition of the growth of the fungi (Fusarium roseum; 1 μmol/ml): 100%; Inhibition of the growth of the fungi (Fusarium roseum; 2.5 μmol/ml): 100%; Inhibition of the growth of the fungi (Fusarium roseum; 5 μmol/ml): 100%; Inhibition of the growth of the fungi (Fusarium roseum; 10 μmol/ml): 100%; Inhibition of the growth of the fungi (Fusarium roseum; 20 μmol/ml): 100%; Inhibition of the growth of the fungi (Fusarium roseum; 25 μmol/ml): 100%
CCCCCCCCCCCCNC1OC(CO)C(O)C(O)C1O (centres unmarked) [compound Ik]	showed a bactericidal activity	inhibition of the growth of the bacteria was observed	16 (≈ 46 µM)	2 (≈ 5.76 µM)	96	96	96	24	96	96	96	32 (≈ 92.1 µM)		
